Reference: patent publication US20260258035A1, “FIVE-MEMBERED AND SIX-MEMBERED NITROGEN-CONTAINING COMPOUND, AND INTERMEDIATE, PREPARATION METHOD AND USE THEREOF” (HANGZHOU SYNRX THERAPEUTICS BIOMEDICAL TECHNOLOGY CO., LTD., priority 2022, published 2026)
In brackets after ≈: the same amount, converted by molar mass. Read-outs that look alike come from different tables or passages of the source.

Key:
PARG = PARG (Homo sapiens, UniProt Q86W56); test: Biochemical assay (PARG, TFMU-ADPr substrate)
[1] = system: Human breast squamous carcinoma cells HCC1806; test: Cell function assay (In-Cell Western, PAR/pADPr after MMS); type: cell-based; conditions: read-out: IC50 (nM) in cell function assay
Summary of the method: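 HCC1806 cells adhered 24 h at 37 °C, 5% CO2, then were pretreated 1 h with compound (30000 nM down to 1 nM, plus 0 nM) or DMSO. MMS was then added at 0.5 mM final for 1 h before In-Cell Western detection of PAR/pADPr.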

[2] = Solubility assay (FaSSGF / FaSSIF); type: physicochemical; conditions: kinetic from dmso stock, 2 h at 25° C.
Experimental: 1). Preparation of Solutions:
The FaSSGF solution was prepared as follows: • a) preparation of FaSSGF buffer: dissolve 2.0 g of NaCl as the raw material in about 0.9 L of purified water; • b) adjustment of the pH of the buffer: adjust the pH of the buffer to 1.6 with 1N HCL, and replenish the buffer with purified water to the volume of 1 L; and • c) preparation of FaSSGF solution by addition of FaSSGF powder: add 0.06 g of the FaSSGF powder to about 0.5 L of the buffer, stir until the powder was completely dissolved, and make up for the volume (1 L) with the buffer.
The FaSSIF solution was prepared as follows: • a) preparation of FaSSIF buffer: dissolve 0.42 g of NaOH, 3.44 g of anhydrous NaH2PO4, and 6.19 g of NaCl as raw materials in about 0.9 L of purified water; • b) adjustment the pH of the buffer: adjust the pH of the buffer to 6.5 with 1 N NaOH or 1 N HCL, and replenish the buffer with purified water to the volume of 1 L; and • c) preparation of FaSSIF solution by addition of FaSSIF powder: add 2.24 g of the FaSSIF powder to about 0.5 L of the buffer, stir until the powder was completely dissolved, and make up for the volume (1 L) with the buffer.
2). Preparation of the Solution of Control Compound:
The control compound was weighed and dissolved in DMSO to 10 mM to obtain a stock solution.
3) Preparation of the Solution of Compound to be Tested:
The compound to be tested was formulated into a 10 mM DMSO stock solution.
4) Preparation of Internal Standard Solution:
a) The internal standard was weighed and dissolved in DMSO to 10 mM to obtain an internal standard stock solution (ISTD stock solution).
b) The internal standard stock solution was diluted to 500 nM (Tolbutamide) with an ACN:methano mixture (volume ratio: 1:1) to obtain a quenching solution.
a) The FaSSGF solution at pH 1.6 and the FaSSIF solution at pH 6.5 were pre-warmed; and then, the compound was injected into the buffer.
Once done, the samples were centrifuged at 12,000 rpm for 10 min, and the supernatant was transferred to a new tube. The supernatant was diluted 10-fold and 100-fold with the FaSSGF solution at pH 1.6 or the FaSSIIF solution at pH 6.5. 20 μL of each sample (1×, 10×, 100× and standard curve) was added to 500 μL of the IS solution. The resulting mixture was vortexed vigorously for 1 min and centrifuged at 4,500 rpm for 15 min at 4° C. 150 μL of the supernatant was transferred for LC-MS/MS sample analysis.

HCC1806 = test: Cell viability assay (CellTiter-Glo); type: cell-based, Human; conditions: HCC1806, 7 days, CellTiter-Glo, read-out: IC50 (nM) in cell viability assay
[3] = 4 nM PARG, 66.2 uM TFMU-ADPr, 3 min at room temperature
[4] = HCC1806, In-Cell Western, MMS treatment
[5] = HCC1806, compound 1 h then 0.5 mM MMS 1 h, PAR/pADPr antibody, In-Cell Western
[6] = fassgf or other biorelevant, FaSSGF solution pH 1.6, 100 μM from DMSO stock, read-out: FaSSGF solubility
[7] = FaSSIF solution pH 6.5, 100 μM from DMSO stock, read-out: FaSSIF solubility

PARG, sequence (Q86W56 whole entry): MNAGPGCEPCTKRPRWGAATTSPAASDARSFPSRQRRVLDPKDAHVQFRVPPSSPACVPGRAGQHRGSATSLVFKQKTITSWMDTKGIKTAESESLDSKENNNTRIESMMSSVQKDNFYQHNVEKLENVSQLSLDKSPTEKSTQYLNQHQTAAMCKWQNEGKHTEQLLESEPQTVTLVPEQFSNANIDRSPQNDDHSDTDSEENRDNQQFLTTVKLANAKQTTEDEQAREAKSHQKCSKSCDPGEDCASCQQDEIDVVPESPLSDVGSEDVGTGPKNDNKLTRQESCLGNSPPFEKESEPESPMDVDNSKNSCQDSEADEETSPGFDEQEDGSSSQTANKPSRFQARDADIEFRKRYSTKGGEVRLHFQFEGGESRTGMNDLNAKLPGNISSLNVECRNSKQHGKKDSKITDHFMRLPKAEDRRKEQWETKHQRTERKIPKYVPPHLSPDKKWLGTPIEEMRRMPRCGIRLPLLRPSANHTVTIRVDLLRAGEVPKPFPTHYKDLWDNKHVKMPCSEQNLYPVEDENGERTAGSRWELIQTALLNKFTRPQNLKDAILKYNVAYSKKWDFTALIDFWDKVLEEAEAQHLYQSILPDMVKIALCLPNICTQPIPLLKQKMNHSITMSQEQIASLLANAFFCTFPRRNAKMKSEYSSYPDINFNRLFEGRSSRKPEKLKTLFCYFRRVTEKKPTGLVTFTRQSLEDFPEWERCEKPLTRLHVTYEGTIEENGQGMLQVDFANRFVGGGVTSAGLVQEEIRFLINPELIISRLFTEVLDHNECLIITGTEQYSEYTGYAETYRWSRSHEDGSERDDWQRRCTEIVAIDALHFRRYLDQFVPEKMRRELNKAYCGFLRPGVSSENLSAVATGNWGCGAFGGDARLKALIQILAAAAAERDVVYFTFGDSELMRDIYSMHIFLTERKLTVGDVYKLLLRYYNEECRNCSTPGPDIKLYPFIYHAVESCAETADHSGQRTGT

IC50 (PARG; [3]) | IC50 (PARG; PARG, TFMU-ADPr substrate) | IC50 [1, 4] | IC50 [1, 5] | solubility at 2 h [2, 6] | solubility at 2 h [2, 7] | IC50 (HCC1806) | IC50 (HCC1806; Homo sapiens, HCC1806, 168 h) | Structure (SMILES)
< 100 nM | 0.19 nM | 2.85 nM | > 1000 nM | 3.83 µM (≈ 2.2 µg/mL) | 10 µM (≈ 5.74 µg/mL) | 438 nM | < 500 nM | CC(C)C(=O)N1CCN(c2cc(S(=O)(=O)NC3(CF)COC3)cn3c(-c4nnc(C(F)F)s4)ncc23)CC1 [Example 60, 3-(5-(difluoromethyl)-1,3,4-thiadiazol-2-yl)-N-(3-(fluoromethyl)oxetan-3-yl)-8-(4-isobutyrylpiperazin-1-yl)imidazo[1,5-a]pyridine-6-sulfonamide]
< 100 nM | 1.49 nM | 2.28 nM | < 100 nM | 81.8 µM (≈ 47.8 µg/mL) | 140 µM (≈ 81.9 µg/mL) | – | – | C[C@@H]1CN(c2cc(S(=O)(=O)NC3(CF)CC3)cn3c(-c4nnc(C(F)F)s4)nnc23)CCN1C(=O)C1(C)CC1 [Example 120, (R)-3-(5-(difluoromethyl)-1,3,4-thiadiazol-2-yl)-N-(1-(fluoromethyl)cyclopropyl)-8-(3-methyl-4-(1-methylcyclopropane-1-carbonyl)piperazin-1-yl)-[1,2,4]triazolo[4,3-a]pyridine-6-sulfonamide]
– | 2.54 nM | – | – | 38.5 µM (≈ 23.3 µg/mL) | 88.2 µM (≈ 53.3 µg/mL) | – | 759 nM | CC(C)C(=O)N1CCN(c2cc(S(=O)(=O)NC3(C)COC3)cn3c(-c4nnc(C(F)F)s4)nc(Cl)c23)C[C@H]1C [Example 124, (R)-1-chloro-3-(5-(difluoromethyl)-1,3,4-thiadiazol-2-yl)-8-(4-isobutyryl-3-methylpiperazin-1-yl)-N-(3-methyloxetan-3-yl)imidazo[1,5-a]pyridine-6-sulfonamide]
< 100 nM | 0.46 nM | 1.12 nM | < 100 nM | 5.19 µM (≈ 2.89 µg/mL) | 17.4 µM (≈ 9.69 µg/mL) | – | – | [2H]c1nc(-c2nnc(C(F)F)s2)n2cc(S(=O)(=O)NC3(C)COC3)cc(N3CCN(C(=O)C(C)C)CC3)c12 [Example 159, 3-(5-(difluoromethyl)-1,3,4-thiadiazol-2-yl)-8-(4-isobutyrylpiperazin-1-yl)-N-(3-methyloxetan-3-yl)imidazo[1,5-a]pyridine-6-sulfonamide-1-d]
– | 18.2 nM | – | – | 21.5 µM (≈ 12.3 µg/mL) | 97.2 µM (≈ 55.6 µg/mL) | – | 565 nM | CC1(NS(=O)(=O)c2cc(N3CCN(C(=O)C4CC4)CC3)c3cnc(-c4nnc(C(F)(F)F)s4)n3c2)COC1 [Example 175, 8-(4-(cyclopropanecarbonyl)piperazin-1-yl)-N-(3-methyloxetan-3-yl)-3-(5-(trifluoromethyl)-1,3,4-thiadiazol-2-yl)imidazo[1,5-a]pyridine-6-sulfonamide]
– | 5.01 nM | – | – | 73.8 µM (≈ 42 µg/mL) | 82.4 µM (≈ 46.9 µg/mL) | – | 300 nM | CN(C)C(=O)N1CCN(c2cc(S(=O)(=O)NC3(C#N)CC3)cn3c(-c4nnc(C(F)(F)F)s4)ncc23)CC1 [Example 227, 4-(6-(N-(1-cyanocyclopropyl)sulfamoyl)-3-(5-(trifluoromethyl)-1,3,4-thiadiazol-2-yl)imidazo[1,5-a]pyridin-8-yl)-N,N-dimethylpiperazine-1-carboxamide]
– | 19.1 nM | – | – | > 100 µM | 97.7 µM (≈ 59.7 µg/mL) | – | 175 nM | CC1(C(=O)N2CCN(c3cc(S(=O)(=O)NC4(C#N)CC4)cn4c(-c5nnc(C(F)(F)F)s5)ncc34)CC2)CCCO1 (stereo not drawn) [Example 298, N-(1-cyanocyclopropyl)-8-(4-(2-methyltetrahydrofuran-2-carbonyl)piperazin-1-yl)-3-(5-(trifluoromethyl)-1,3,4-thiadiazol-2-yl)imidazo[1,5-a]pyridine-6-sulfonamide]
